Experimental data taken from paper PMC10495297, “Three new amide derivatives from the fungus Alternaria brassicicola” (Natural Products and Bioprospecting, 2023).

What was measured:
[1] = MTT cytotoxicity assay, normal liver cell LO2; assay type: cell-based; conditions: human, LO2 normal liver cells, 0.064 to 40 μM
Method: (§1) Compounds 1–6 were tested for the cytotoxicity against six cell lines, including five human cancer cell lines (HepG2, Hep3B, HT-29, HeLa, and OCVAR) and the normal liver cell LO2.
(§2) Compounds 1–6 were evaluated for the cytotoxicity against five human cancer cell lines and normal LO2, including OCVaR, HepG2, HeLa, HT-29, and Hep3B, by a previously reported method The tested cells were purchased from the Cell Bank of Chinese Academy of Science, Shanghai, China. For all cell lines, 5000 cells/ well were seeded into 96-well plates (n = 3) and cultured for 18 h, then exposed to the test compounds at concentrations ranging from 0.064 to 40 μM for 48 h, with cis-platin as the positive control. Briefly, 10 μL/well of MTT was added and cultured for another 4 h before removing medium and adding 100 μL of DMSO. The absorbance at 490 nm was detected, and complete medium containing only 0.1% DMSO was defined as 100% and blank well as 0%. The concentration−response relationships were analyzed using Graphpad Prism Software, version 7.0, and IC50 values derived using nonlinear regression analysis fit to a logistic equation.

[2] = MTT cytotoxicity assay, HepG2; assay type: cell-based; conditions: human, HepG2 cells, 0.064 to 40 μM
Method: as §1, §2

[3] = MTT cytotoxicity assay, OCVAR; assay type: cell-based; conditions: human, OCVAR cells, 0.064 to 40 μM
Method: as §1, §2

[4] = MTT cytotoxicity assay, HT-29; assay type: cell-based; conditions: human, HT-29 cells, HT-29, MTT, 0.064 to 40 μM
Method: as §1, §2

[5] = MTT cytotoxicity assay, Hep3B; assay type: cell-based; conditions: human, Hep3B cells, 0.064 to 40 μM
Method: as §1, §2

[6] = MTT cytotoxicity assay, HeLa; assay type: cell-based; conditions: human, HeLa cells, 0.064 to 40 μM
Method: as §1, §2

[7] = tested on: IKKβ; design: method as in PMID 30095270; conditions: cited from earlier work
[8] = tested on: PPAR-γ; design: method as in PMID 30525677; conditions: cited from earlier work

Row | Compound | IC50 at 48 h [1] [µM] | IC50 at 48 h [2] [µM] | IC50 at 48 h [3] [µM] | IC50 at 48 h [4] [µM] | IC50 at 48 h [5] [µM] | IC50 at 48 h [6] [µM] | IKKβ inhibitory effect [7] | agonistic action upon PPAR-γ [8]
1 | CCCCOC(=O)CCCCNC(C)=O [Compound 2, butyl 5-acetamidopentanoate] | > 40 | > 40 | > 40 | > 40 | > 40 | > 40 |  | 
2 | COCc1ccc(C=O)n1CCCC(=O)O [Compound 5, 4-[2-formyl-5-(methoxymethyl)-1H-pyrrol-1-yl]butanoic acid] | > 40 | > 40 | > 40 | > 40 | > 40 | > 40 |  | 
3 | alterbrassicene A |  |  |  |  |  |  | potent IKKβ inhibitory effect | 
4 | alterbrassicicene A |  |  |  |  |  |  |  | strong agonistic action upon PPAR-γ
